Patent publication US6618679B2, “Methods for analysis of gene expression” (priority 2000, dated 2003)

System: Hep G2 (human hepatocellular carcinoma)
Experiment: Non-lethal concentration range for chemical exposure of Hep G2 cells
Format: cell-based
Experimental: The hepatocyte cell line, Hep G2 (human hepatocellular carcinoma, obtained from the American Type Culture Collection, Rockville Md., ATCC#HB-8065), was used to evaluate the effects of various chemicals on expression of a set of genes known to be involved in cellular toxicological responses. The cells were routinely maintained in T75 flasks in Eagle's MEM medium (with non-essential amino acids, sodium pyruvate, and Earle's salts) and 10% fetal bovine serum at 37° C. in a humidified atmosphere of 5% CO2. The chemicals used in exposure experiments included cadmium chloride (CdCl2) and methyl methane sulfonate (MMS). CdCl2 is a strong inducer of metallothionein, a metal-binding protein, and is known to be carcinogenic and capable of interfering with DNA repair. MMS is an alkylating agent that induces DNA damage. Dilutions of these compounds were prepared from concentrated stocks obtained from Aldrich Chemical Company (Milwaukee, Wis.). Water was used as the solvent control in dosing studies. […] These concentration ranges were empirically determined to not be lethal to cells for the duration of the exposure period. […] Cell number was quantitated using a dye incorporation assay, CyQUANT from Molecular Probes (Eugene, Oreg.).

Structure (SMILES) | lethality to cells for the duration of the exposure period (final concentrations 10^-4M to 10^-6M CdCl2, 3 hours exposure) | lethality to cells for the duration of the exposure period (final concentrations 0.5 mM to 2 mM MMS, 3 hours exposure)
[Cl][Cd][Cl] [CdCl2, cadmium chloride] | not be lethal | –
COS(C)(=O)=O [MMS, methyl methane sulfonate] | – | not be lethal
